CC[C@H]1OC(=O)[C@H](C)[C@@H](O[C@H]2C[C@@](C)(OC)[C@@H](O)[C@H](C)O2)[C@H](C)[C@@H](O[C@@H]2O[C@H](C)C[C@H](N(C)C)[C@H]2O)[C@](C)(O)C[C@@H](C)C(=O)[C@H](C)[C@@H](O)[C@]1(C)O.N#CS.O.O
solubility (mole fraction)
Settings | 288.15 K | 293.15 K | 298.15 K | 303.15 K | 308.15 K | 313.15 K | 318.15 K
in ethanol | 0.00426 | 0.00475 | 0.00525 | 0.00586 | 0.00679 | 0.00767 | 0.00856
in isopropanol | 0.00104 | 0.00121 | 0.00136 | 0.00157 | 0.00175 | 0.002 | 0.00227
in methanol | 0.0119 | 0.0128 | 0.0144 | 0.0158 | 0.0173 | 0.0189 | 0.0203
in n-propanol | 0.00409 | 0.00437 | 0.00488 | 0.00567 | 0.00643 | 0.00725 | 0.00841

— BigSolDB 2.1
